Experimental data reported in ChEMBL document CHEMBL1770065, “Discovery of a clinical candidate from the structurally unique dioxa-bicyclo[3.2.1]octane class of sodium-dependent glucose cotransporter 2 inhibitors” (J Med Chem, 2011).

Assays:
[1] = target: T1, Solute carrier family 22 member 6 (Homo sapiens, UniProt Q4U2R8); test: Inhibition of human OAT1
T1 sequence (Q4U2R8 whole entry): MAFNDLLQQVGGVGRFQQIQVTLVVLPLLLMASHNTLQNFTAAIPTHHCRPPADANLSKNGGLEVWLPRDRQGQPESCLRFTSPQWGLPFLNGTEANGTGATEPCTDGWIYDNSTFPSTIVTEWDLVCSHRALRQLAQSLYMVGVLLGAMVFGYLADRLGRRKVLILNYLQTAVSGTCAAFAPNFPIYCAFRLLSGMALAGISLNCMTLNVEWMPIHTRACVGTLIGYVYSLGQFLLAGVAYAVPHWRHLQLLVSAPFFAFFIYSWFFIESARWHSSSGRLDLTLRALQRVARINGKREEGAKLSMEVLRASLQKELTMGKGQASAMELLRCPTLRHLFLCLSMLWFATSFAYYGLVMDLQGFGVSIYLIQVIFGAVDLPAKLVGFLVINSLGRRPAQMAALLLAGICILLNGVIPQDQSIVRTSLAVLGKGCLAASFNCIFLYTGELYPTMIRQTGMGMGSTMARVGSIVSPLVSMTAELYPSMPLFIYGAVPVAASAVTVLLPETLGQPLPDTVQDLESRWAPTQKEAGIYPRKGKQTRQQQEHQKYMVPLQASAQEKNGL

[2] = target: T2, Solute carrier family 22 member 3 (Rattus norvegicus, UniProt O88446); test: Inhibition of rat OCT3 expressed in HEK293 cells; format: cell-based
T2 sequence (O88446 whole entry): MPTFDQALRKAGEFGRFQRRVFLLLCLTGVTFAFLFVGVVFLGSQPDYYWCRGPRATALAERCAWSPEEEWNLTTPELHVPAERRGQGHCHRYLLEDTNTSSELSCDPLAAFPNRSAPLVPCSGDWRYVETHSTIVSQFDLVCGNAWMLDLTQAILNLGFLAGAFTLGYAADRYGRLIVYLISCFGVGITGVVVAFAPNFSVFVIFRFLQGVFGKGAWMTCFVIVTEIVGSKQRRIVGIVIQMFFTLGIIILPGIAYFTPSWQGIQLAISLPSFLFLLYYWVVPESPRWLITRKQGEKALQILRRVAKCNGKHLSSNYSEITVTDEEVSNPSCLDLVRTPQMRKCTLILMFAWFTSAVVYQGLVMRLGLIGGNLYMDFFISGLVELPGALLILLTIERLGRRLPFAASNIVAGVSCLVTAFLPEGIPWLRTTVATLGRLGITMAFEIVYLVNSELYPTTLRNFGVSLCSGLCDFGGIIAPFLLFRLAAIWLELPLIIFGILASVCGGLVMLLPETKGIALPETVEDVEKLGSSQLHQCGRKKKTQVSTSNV

[3] = target: T3, Sodium/glucose cotransporter 2 (Homo sapiens, UniProt P31639); test: Inhibition of human SGLT2 expressed in CHO cells assessed as inhibition of methyl alpha-D-glucopyranoside uptake after 1 hr; format: cell-based
T3 sequence (P31639 whole entry): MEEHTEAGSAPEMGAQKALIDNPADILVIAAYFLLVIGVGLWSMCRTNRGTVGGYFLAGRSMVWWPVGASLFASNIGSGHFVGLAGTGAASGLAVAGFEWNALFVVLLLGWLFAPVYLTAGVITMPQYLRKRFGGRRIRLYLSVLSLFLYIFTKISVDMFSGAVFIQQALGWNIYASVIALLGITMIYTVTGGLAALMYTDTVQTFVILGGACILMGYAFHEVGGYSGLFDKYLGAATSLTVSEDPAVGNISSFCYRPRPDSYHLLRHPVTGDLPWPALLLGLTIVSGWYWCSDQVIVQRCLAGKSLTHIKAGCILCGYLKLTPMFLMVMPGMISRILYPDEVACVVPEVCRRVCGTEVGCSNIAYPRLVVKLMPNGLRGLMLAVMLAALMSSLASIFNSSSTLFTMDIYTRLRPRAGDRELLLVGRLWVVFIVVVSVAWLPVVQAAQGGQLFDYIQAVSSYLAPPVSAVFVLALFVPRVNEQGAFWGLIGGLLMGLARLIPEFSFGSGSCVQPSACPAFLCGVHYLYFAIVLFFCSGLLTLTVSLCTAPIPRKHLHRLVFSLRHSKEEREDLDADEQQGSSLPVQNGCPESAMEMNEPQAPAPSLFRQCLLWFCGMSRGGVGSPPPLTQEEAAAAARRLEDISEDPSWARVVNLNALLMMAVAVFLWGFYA

inhibition (INH) [1]: Not Active | inhibition (INH) [2]: Not Active | IC50 [3]: 0.877 nM
SMILES: CCOc1ccc(Cc2cc([C@]34OC[C@](CO)(O3)[C@@H](O)[C@H](O)[C@H]4O)ccc2Cl)cc1 [ERTUGLIFLOZIN]
